Measurements: patent US9663496B2, “AMPK-activating heterocyclic compounds and methods for using the same” (Rigel Pharmaceuticals, Inc., priority 2010, dated 2017)

Biological target: AMPK
Assay: AMPK activation, enzyme-linked immunosorbent assay
Type: biochemical
Settings: EC50 for AMPK activation, ELISA
How it was run: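 Test compounds were added, and kinase activation was then detected by immunoassay following established kit procedures.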

Row | Structure (SMILES) | EC50
1 | CS(=O)(=O)c1ccc(OC2CCN(C(=O)c3ccc(C(=O)Nc4ccc(Oc5ccc(F)cc5)nc4)cn3)CC2)cc1 [Compound 235, N-(6-(4-fluorophenoxy)pyridin-3-yl)-6-(4-(4-(methylsulfonyl)phenoxy)piperidine-1-carbonyl)nicotinamide] | < 500 nM
2 | CS(=O)(=O)c1ccc(OC2CCN(C(=O)c3ccc(C(=O)NC4CCN(Cc5cc(F)cc(F)c5)CC4)cn3)CC2)cc1 [Compound 236, N-(1-(3,5-difluorobenzyl)piperidin-4-yl)-6-(4-(4-(methylsulfonyl)phenoxy)piperidine-1-carbonyl)nicotinamide] | < 500 nM
3 | N#Cc1ccc(CN2CCC(NC(=O)c3ccc(C(=O)N4CCC(C(=O)c5ccc(N=[N+]=[N-])cc5)CC4)nc3)CC2)cc1 [Compound 240, 6-(4-(4-azidobenzoyl)piperidine-1-carbonyl)-N-(1-(4-cyanobenzyl)piperidin-4-yl)nicotinamide] | < 500 nM
4 | CN1CCN(c2ccc(C(=O)C3CCN(C(=O)c4ccc(C(=O)NC5CCN(Cc6ccc(C#N)cc6)CC5)cn4)CC3)cc2)CC1 [Compound 243, N-(1-(4-cyanobenzyl)piperidin-4-yl)-6-(4-(4-(4-methylpiperazin-1-yl)benzoyl)piperidine-1-carbonyl)nicotinamide] | < 500 nM
5 | CN1CCN(c2ccc(C(=O)C3CCN(C(=O)c4ccc(C(=O)NC5CCN(Cc6ccc(OC(F)(F)F)cc6)CC5)cn4)CC3)cc2)CC1 [Compound 244, 6-(4-(4-(4-methylpiperazin-1-yl)benzoyl)piperidine-1-carbonyl)-N-(1-(4-(trifluoromethoxy)benzyl)piperidin-4-yl)nicotinamide] | 5000 to 10000 nM
6 | CN1CCN(c2ccc(C(=O)C3CCN(C(=O)c4ccc(C(=O)Nc5ccc(Oc6ccc(F)cc6)nc5)cn4)CC3)cc2)CC1 [Compound 245, N-(6-(4-fluorophenoxy)pyridin-3-yl)-6-(4-(4-(4-methylpiperazin-1-yl)benzoyl)piperidine-1-carbonyl)nicotinamide] | < 500 nM

Further lines, results first:

Row | EC50 | Structure (SMILES)
7 | < 500 nM | COc1ccc(CN2CCC(NC(=O)c3ccc(C(=O)N4CCC(C(=O)c5ccc(S(C)(=O)=O)cc5)CC4)cn3)CC2)cc1 [Compound 234, N-(1-(4-methoxybenzyl)piperidin-4-yl)-5-(4-(4-(methylsulfonyl)benzoyl)piperidine-1-carbonyl)picolinamide]
8 | 1000 to 5000 nM | COc1ccc(CN2CCC(NC(=O)c3ccc(C(=O)N4CCC(Oc5ccc(S(C)(=O)=O)cc5)CC4)nc3)CC2)cc1 [Compound 237, N-(1-(4-methoxybenzyl)piperidin-4-yl)-6-(4-(4-(methylsulfonyl)phenoxy)piperidine-1-carbonyl)nicotinamide]
9 | 1000 to 5000 nM | COc1cccc(CN2CCC(NC(=O)c3ccc(C(=O)N4CCC(Oc5ccc(S(C)(=O)=O)cc5)CC4)nc3)CC2)c1 [Compound 238, N-(1-(3-methoxybenzyl)piperidin-4-yl)-6-(4-(4-(methylsulfonyl)phenoxy)piperidine-1-carbonyl)nicotinamide]
10 | 1000 to 5000 nM | CS(=O)(=O)c1ccc(OC2CCN(C(=O)c3ccc(C(=O)NC4CCN(Cc5cccc(OC(F)(F)F)c5)CC4)cn3)CC2)cc1 [Compound 239, 6-(4-(4-(methylsulfonyl)phenoxy)piperidine-1-carbonyl)-N-(1-(3-(trifluoromethoxy)benzyl)piperidin-4-yl)nicotinamide]
11 | < 500 nM | COc1cccc(CN2CCC(NC(=O)c3ccc(C(=O)N4CCC(Oc5ccc(S(C)(=O)=O)cc5)CC4)cn3)CC2)c1 [Compound 241, N-(1-(3-methoxybenzyl)piperidin-4-yl)-5-(4-(4-(methylsulfonyl)phenoxy)piperidine-1-carbonyl)picolinamide]
12 | < 500 nM | CS(=O)(=O)c1ccc(OC2CCN(C(=O)c3ccc(C(=O)NC4CCN(Cc5cccc(OC(F)(F)F)c5)CC4)nc3)CC2)cc1 [Compound 242, 5-(4-(4-(methylsulfonyl)phenoxy)piperidine-1-carbonyl)-N-(1-(3-(trifluoromethoxy)benzyl)piperidin-4-yl)picolinamide]
